Assay results reported in PubChem BioAssay (NCI).
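Exposure lasted 48 hours, with cells grown in 96-well plates and compounds tested at five concentrations. At the GI50, growth is halved. Definition used: TGI = concentration required for complete inhibition of growth.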

Tests used:
Assay in all cases: DTP human tumour cell line panel, 48 h
IGROV1 ovarian = tested on: IGROV1 ovarian
BT-549 breast = tested on: BT-549 breast
OVCAR-8 ovarian = tested on: OVCAR-8 ovarian
LOX IMVI melanoma = tested on: LOX IMVI melanoma
HOP-62 NSCLC = tested on: HOP-62 NSCLC
MOLT-4 leukemia = tested on: MOLT-4 leukemia
HCT-15 colon = tested on: HCT-15 colon
HT29 colon = tested on: HT29 colon
NCI/ADR-RES ovarian = tested on: NCI/ADR-RES ovarian
SR leukemia = tested on: SR leukemia
CAKI-1 renal = tested on: CAKI-1 renal
HCC-2998 colon = tested on: HCC-2998 colon
MDA-MB-435 = tested on: MDA-MB-435
NCI-H226 lung = tested on: NCI-H226 lung
ACHN renal = tested on: ACHN renal
UACC-62 melanoma = tested on: UACC-62 melanoma
HL-60(TB) leukemia = tested on: HL-60(TB) leukemia
MDA-MB-231 breast = tested on: MDA-MB-231 breast
HCT-116 colon = tested on: HCT-116 colon
SF-295 CNS = tested on: SF-295 CNS
T-47D breast = tested on: T-47D breast
MALME-3M melanoma = tested on: MALME-3M melanoma
SF-539 CNS = tested on: SF-539 CNS
KM12 colon = tested on: KM12 colon
SK-OV-3 ovarian = tested on: SK-OV-3 ovarian
SNB-75 CNS = tested on: SNB-75 CNS
SW-620 colon = tested on: SW-620 colon
COLO 205 colon = tested on: COLO 205 colon
PC-3 prostate = tested on: PC-3 prostate
NCI-H522 lung = tested on: NCI-H522 lung
M14 melanoma = tested on: M14 melanoma
DU-145 prostate = tested on: DU-145 prostate
SK-MEL-28 melanoma = tested on: SK-MEL-28 melanoma
786-0 renal = tested on: 786-0 renal
A549 NSCLC = tested on: A549 NSCLC
OVCAR-4 ovarian = tested on: OVCAR-4 ovarian
SK-MEL-5 melanoma = tested on: SK-MEL-5 melanoma
U251 CNS = tested on: U251 CNS
SK-MEL-2 melanoma = tested on: SK-MEL-2 melanoma
OVCAR-3 ovarian = tested on: OVCAR-3 ovarian
K-562 leukemia = tested on: K-562 leukemia
SNB-19 CNS = tested on: SNB-19 CNS
EKVX NSCLC = tested on: EKVX NSCLC
TK-10 renal = tested on: TK-10 renal
RPMI-8226 leukemia = tested on: RPMI-8226 leukemia
CCRF-CEM leukemia = tested on: CCRF-CEM leukemia
A498 renal = tested on: A498 renal
SF-268 CNS = tested on: SF-268 CNS
MCF7 breast = tested on: MCF7 breast
OVCAR-5 ovarian = tested on: OVCAR-5 ovarian
HS 578T breast = tested on: HS 578T breast
UACC-257 melanoma = tested on: UACC-257 melanoma
NCI-H23 lung = tested on: NCI-H23 lung
SN12C renal = tested on: SN12C renal
RXF 393 renal = tested on: RXF 393 renal
HOP-92 NSCLC = tested on: HOP-92 NSCLC
UO-31 renal = tested on: UO-31 renal
NCI-H460 lung = tested on: NCI-H460 lung

## O=C(CNc1c(Cl)cccc1Cl)Nc1ccc(-c2nc3ccccc3s2)cc1
IGROV1 ovarian
  GI50: 2.3 µM
  TGI: 5.85 µM
BT-549 breast
  GI50: 1.72 µM
  TGI: 4.64 µM
OVCAR-8 ovarian
  GI50: 3.01 µM
  TGI: > 29.8 µM
LOX IMVI melanoma
  GI50: 1.39 µM
  TGI: 2.88 µM
HOP-62 NSCLC
  GI50: 6.8 µM
  TGI: 21.3 µM
MOLT-4 leukemia
  GI50: 0.666 µM
  TGI: > 27.3 µM
HCT-15 colon
  GI50: 1.78 µM
  TGI: 5.28 µM
HT29 colon
  GI50: 2.16 µM
  TGI: 4.76 µM
NCI/ADR-RES ovarian
  GI50: 3.22 µM
  TGI: 9.89 µM
SR leukemia
  GI50: 0.797 µM
  TGI: > 23.1 µM
CAKI-1 renal
  GI50: 2.26 µM
  TGI: 5.79 µM
HCC-2998 colon
  GI50: 2.11 µM
  TGI: 4.29 µM
MDA-MB-435
  GI50: 2.64 µM
  TGI: 10.9 µM
NCI-H226 lung
  GI50: 2.17 µM
  TGI: 5.72 µM
ACHN renal
  GI50: 1.97 µM
  TGI: 3.93 µM
UACC-62 melanoma
  GI50: 1.71 µM
  TGI: 3.87 µM
HL-60(TB) leukemia
  GI50: 2.37 µM
  TGI: 7.5 µM
MDA-MB-231 breast
  GI50: 2.67 µM
  TGI: 7.31 µM
HCT-116 colon
  GI50: 1.98 µM
  TGI: 4.93 µM
SF-295 CNS
  GI50: 15.6 µM
  TGI: 30.2 µM
T-47D breast
  GI50: 1.89 µM
  TGI: 5.37 µM
MALME-3M melanoma
  GI50: 1.85 µM
  TGI: 3.75 µM
SF-539 CNS
  GI50: 1.88 µM
  TGI: 3.62 µM
KM12 colon
  GI50: 2.62 µM
  TGI: 6.94 µM
SK-OV-3 ovarian
  GI50: 9.11 µM
  TGI: 70.6 µM
SNB-75 CNS
  GI50: 2.42 µM
  TGI: 8.22 µM
SW-620 colon
  GI50: 2.2 µM
  TGI: 4.9 µM
COLO 205 colon
  GI50: 2.33 µM
  TGI: 4.81 µM
PC-3 prostate
  GI50: 1.66 µM
  TGI: 3.52 µM
NCI-H522 lung
  GI50: 1.56 µM
  TGI: 3.61 µM
M14 melanoma
  GI50: 2.05 µM
  TGI: 5.52 µM
DU-145 prostate
  GI50: 3.41 µM
  TGI: 10.7 µM
SK-MEL-28 melanoma
  GI50: 2.61 µM
  TGI: 7.31 µM
786-0 renal
  GI50: 1.78 µM
  TGI: 3.76 µM
A549 NSCLC
  GI50: 5.83 µM
  TGI: 26.6 µM
OVCAR-4 ovarian
  GI50: 1.95 µM
  TGI: 5.19 µM
SK-MEL-5 melanoma
  GI50: 1.61 µM
  TGI: 3.3 µM
U251 CNS
  GI50: 2.06 µM
  TGI: 4.65 µM
SK-MEL-2 melanoma
  GI50: 3.32 µM
  TGI: 12.4 µM
OVCAR-3 ovarian
  GI50: 1.97 µM
  TGI: 3.73 µM
K-562 leukemia
  GI50: 1.24 µM
  TGI: > 33.9 µM
SNB-19 CNS
  GI50: 3.14 µM
  TGI: 12.5 µM
EKVX NSCLC
  GI50: 11.2 µM
  TGI: 28.2 µM
TK-10 renal
  GI50: 2.04 µM
  TGI: 4.69 µM
RPMI-8226 leukemia
  GI50: 2.44 µM
  TGI: > 22.8 µM
CCRF-CEM leukemia
  GI50: 0.485 µM
A498 renal
  GI50: 8.93 µM
  TGI: 23.4 µM
SF-268 CNS
  GI50: 2.4 µM
  TGI: 6.44 µM
MCF7 breast
  GI50: 0.0913 µM
  TGI: 5.7 µM
OVCAR-5 ovarian
  GI50: 2.53 µM
  TGI: 7.79 µM
HS 578T breast
  GI50: 5.11 µM
  TGI: 67.8 µM
UACC-257 melanoma
  GI50: 4.27 µM
  TGI: 16.6 µM
NCI-H23 lung
  GI50: 2.06 µM
  TGI: 4.58 µM
SN12C renal
  GI50: 2.31 µM
  TGI: 7.1 µM
RXF 393 renal
  GI50: 4.15 µM
  TGI: 9.73 µM
HOP-92 NSCLC
  GI50: 1.66 µM
  TGI: 4.45 µM
UO-31 renal
  GI50: 3.62 µM
  TGI: 9.13 µM
NCI-H460 lung
  GI50: 2.69 µM
  TGI: 7.96 µM

## O=C(NC1CCC(Br)CC1)C1CCCC(S(=O)(=O)NC2CCCCC2)C1 (stereo unspecified)
IGROV1 ovarian
  GI50: 9.78 µM
  TGI: 46 µM
BT-549 breast
  GI50: 8.34 µM
  TGI: 35.4 µM
OVCAR-8 ovarian
  GI50: 12.8 µM
  TGI: 59 µM
LOX IMVI melanoma
  GI50: 10.7 µM
  TGI: 40.4 µM
HOP-62 NSCLC
  GI50: 24 µM
  TGI: 59.8 µM
MOLT-4 leukemia
  GI50: 8.91 µM
  TGI: 79.3 µM
HCT-15 colon
  GI50: 11.5 µM
  TGI: 46.9 µM
HT29 colon
  GI50: 17.7 µM
  TGI: 55 µM
NCI/ADR-RES ovarian
  GI50: 8.36 µM
  TGI: 37.7 µM
SR leukemia
  GI50: 18.8 µM
  TGI: 129 µM
CAKI-1 renal
  GI50: 10.2 µM
  TGI: 42.5 µM
HCC-2998 colon
  GI50: 13 µM
  TGI: 47.3 µM
MDA-MB-435
  GI50: 10.6 µM
  TGI: 42.3 µM
NCI-H226 lung
  GI50: 12 µM
  TGI: 109 µM
ACHN renal
  GI50: 9.9 µM
  TGI: 39.4 µM
UACC-62 melanoma
  GI50: 7.38 µM
  TGI: 35.3 µM
HL-60(TB) leukemia
  GI50: 8.6 µM
  TGI: 82.2 µM
MDA-MB-231 breast
  GI50: 13.5 µM
  TGI: 55.8 µM
HCT-116 colon
  GI50: 9.15 µM
  TGI: 38 µM
SF-295 CNS
  GI50: 8.04 µM
  TGI: 28.4 µM
T-47D breast
  GI50: 6.05 µM
  TGI: 37 µM
MALME-3M melanoma
  GI50: 6.47 µM
  TGI: 39.3 µM
SF-539 CNS
  GI50: 13.5 µM
  TGI: 46.3 µM
KM12 colon
  GI50: 13.3 µM
  TGI: 47.8 µM
SK-OV-3 ovarian
  GI50: 14.1 µM
  TGI: 47.3 µM
SNB-75 CNS
  GI50: 17 µM
  TGI: 69.5 µM
SW-620 colon
  GI50: 13.9 µM
  TGI: 53.7 µM
COLO 205 colon
  GI50: 14 µM
  TGI: 51.5 µM
PC-3 prostate
  GI50: 8.47 µM
  TGI: 37.1 µM
NCI-H522 lung
  GI50: 8 µM
  TGI: 38.1 µM
M14 melanoma
  GI50: 9.42 µM
  TGI: 39.6 µM
DU-145 prostate
  GI50: 16.1 µM
  TGI: 47.7 µM
SK-MEL-28 melanoma
  GI50: 9.22 µM
  TGI: 36.8 µM
786-0 renal
  GI50: 19.3 µM
  TGI: 55 µM
A549 NSCLC
  GI50: 9.81 µM
  TGI: 44.8 µM
OVCAR-4 ovarian
  GI50: 8.19 µM
  TGI: 44.1 µM
SK-MEL-5 melanoma
  GI50: 4.96 µM
  TGI: 11.6 µM
U251 CNS
  GI50: 10.9 µM
  TGI: 43 µM
SK-MEL-2 melanoma
  GI50: 11.5 µM
  TGI: 46.4 µM
OVCAR-3 ovarian
  GI50: 9.83 µM
  TGI: 40 µM
K-562 leukemia
  GI50: 7.52 µM
  TGI: 250 µM
SNB-19 CNS
  GI50: 11.1 µM
  TGI: 42.7 µM
EKVX NSCLC
  GI50: 7.81 µM
  TGI: 32.9 µM
TK-10 renal
  GI50: 15 µM
  TGI: 49.9 µM
RPMI-8226 leukemia
  GI50: 9.79 µM
  TGI: 58 µM
CCRF-CEM leukemia
  GI50: 0.233 µM
  TGI: 26.3 µM
A498 renal
  GI50: 3.7 µM
  TGI: 21.7 µM
SF-268 CNS
  GI50: 12.6 µM
  TGI: 56 µM
MCF7 breast
  GI50: 9.31 µM
  TGI: 63.8 µM
OVCAR-5 ovarian
  GI50: 14.2 µM
  TGI: 48.8 µM
HS 578T breast
  GI50: 16.8 µM
  TGI: 87.2 µM
UACC-257 melanoma
  GI50: 9.32 µM
  TGI: 38.4 µM
NCI-H23 lung
  GI50: 7.88 µM
  TGI: 35.3 µM
SN12C renal
  GI50: 9.29 µM
  TGI: 39.8 µM
RXF 393 renal
  GI50: 11.8 µM
  TGI: 48.1 µM
HOP-92 NSCLC
  GI50: 4.7 µM
  TGI: 23 µM
UO-31 renal
  GI50: 6.26 µM
  TGI: 33.1 µM
NCI-H460 lung
  GI50: 11.4 µM
  TGI: 48 µM
